# Assay results taken from ChEMBL document CHEMBL3879899, “Gastrin releasing peptide compounds” (2011).
# Calls of active or inactive are those of the source. The rule behind the calls is not given here. Where a SMILES comes first, the peptide text is derived from it. The star is where a group is joined. Me2Gly = CN(C)CC(=O)*; Acm = CC(=O)NC*
# Assays:
# [1] = target: T1, Gastrin-releasing peptide receptor (Homo sapiens, UniProt P30550); assay: Displacement of [125I]-BBN from GRPR in human PC3 cells after 1 hr by compuGamma counting or microplate scintillation counting method; type: cell-based, PC-3
# Target sequence in this assay (P30550 whole entry): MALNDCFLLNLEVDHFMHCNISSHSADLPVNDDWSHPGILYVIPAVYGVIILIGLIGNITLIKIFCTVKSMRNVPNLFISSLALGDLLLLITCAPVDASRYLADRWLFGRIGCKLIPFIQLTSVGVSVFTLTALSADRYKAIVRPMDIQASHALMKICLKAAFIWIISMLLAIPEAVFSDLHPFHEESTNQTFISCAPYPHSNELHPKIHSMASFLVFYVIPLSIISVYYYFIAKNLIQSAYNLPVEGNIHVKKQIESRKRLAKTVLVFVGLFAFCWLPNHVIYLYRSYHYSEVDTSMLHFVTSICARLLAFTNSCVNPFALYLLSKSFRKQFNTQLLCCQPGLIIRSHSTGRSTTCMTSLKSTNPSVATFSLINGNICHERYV
# Neuromedin-B receptor = target: T2, Neuromedin-B receptor (Rattus norvegicus, UniProt P24053); assay: Displacement of [125I]-NMB from NMB receptor in rat C6 cells; type: cell-based
# T2 sequence (P24053 whole entry): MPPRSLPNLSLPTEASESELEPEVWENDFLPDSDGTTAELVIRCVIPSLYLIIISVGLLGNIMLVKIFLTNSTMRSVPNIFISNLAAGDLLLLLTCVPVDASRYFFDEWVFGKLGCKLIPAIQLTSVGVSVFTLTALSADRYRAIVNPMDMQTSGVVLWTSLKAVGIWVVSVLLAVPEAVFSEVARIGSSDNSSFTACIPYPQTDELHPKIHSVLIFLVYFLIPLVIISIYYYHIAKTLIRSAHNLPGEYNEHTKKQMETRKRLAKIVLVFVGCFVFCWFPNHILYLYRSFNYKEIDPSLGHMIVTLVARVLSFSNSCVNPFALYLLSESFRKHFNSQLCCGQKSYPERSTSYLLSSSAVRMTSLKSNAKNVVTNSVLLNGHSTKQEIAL
# [2] = Drug internalization in human PC3 cells after 40 mins by gamma counting method; type: ADME, cell-based; conditions: pc-3, 40 min
# [3] = Drug efflux in human PC3 cells after 2 hrs by gamma counting method; type: ADME, cell-based; conditions: pc-3, 2 h
# [4] = target: T1, Gastrin-releasing peptide receptor; assay: Binding affinity to GRP receptor in human colon smooth muscle after 1 hr by autoradiography
# Target sequence in this assay (P30550 whole entry, looked up): as the sequence (P30550 whole entry) above
SMILES,IC50 [1],IC50 (Neuromedin-B receptor),also measured
CSCC[C@H](NC(=O)[C@H](CC(C)C)NC(=O)[C@H](Cc1c[nH]cn1)NC(=O)CNC(=O)[C@@H](NC(=O)[C@H](C)NC(=O)[C@H](Cc1c[nH]c2ccccc12)NC(=O)[C@H](CCC(N)=O)NC(=O)CN1CCCC[C@H](NC(=O)CN2CCN(CC(=O)O)CCN(CC(=O)O)CCN(CC(=O)O)CC2)C1=O)C(C)C)C(N)=O,–,–,IC50 ([1]; pc-3): 50 nM
CSCC[C@H](NC(=O)[C@H](CC(C)C)NC(=O)[C@H](Cc1cnc[nH]1)NC(=O)CNC(=O)[C@@H](NC(=O)[C@H](C)NC(=O)[C@H](Cc1c[nH]c2ccccc12)NC(=O)[C@H](CCC(N)=O)NC(=O)[C@H](CCCCN)NC(=O)[C@H](CO)NC(=O)CNC(=O)[C@H](CSCNC(C)=O)NC(=O)[C@H](CO)NC(=O)CN(C)C)C(C)C)C(N)=O (Me2Gly-SC(Acm)GSKQWAVGHLM-NH2),2 nM,–,–
CSCC[C@H](NC(=O)[C@H](CC(C)C)NC(=O)[C@H](Cc1cnc[nH]1)NC(=O)CNC(=O)[C@@H](NC(=O)[C@H](C)NC(=O)[C@H](Cc1c[nH]c2ccccc12)NC(=O)[C@H](CCC(N)=O)NC(=O)[C@H](CCCNC(=N)N)NC(=O)[C@H](CCCCNC(=O)CNC(=O)CN1CCN(CC(=O)O)CCN(CC(=O)O)CCN(CC(=O)O)CC1)NC(=O)COCCOCCOCC(=O)N[C@H]1CC[C@]2(C)[C@H]3C[C@H](O)[C@]4(C)[C@@H]([C@H](C)CCC(=O)O)CC[C@H]4[C@@H]3CC[C@]2(C)C1)C(C)C)C(N)=O,> 50 nM,–,–
CSCC[C@H](NC(=O)[C@H](CC(C)C)NC(=O)[C@H](Cc1cnc[nH]1)NC(=O)CNC(=O)[C@@H](NC(=O)[C@H](C)NC(=O)[C@H](Cc1c[nH]c2ccccc12)NC(=O)[C@H](CCC(N)=O)NC(=O)[C@H](CC(N)=O)NC(=O)CNC(=O)[C@H](CC(C)C)NC(=O)[C@H](CCCN=C(N)N)NC(=O)[C@H](CCC(N)=O)NC(=O)[C@@H]1CCC(=O)N1)C(C)C)C(N)=O [BOMBESIN],–,–,Drug uptake [2]: 59%; Drug transport [3]: 35%
CSCC[C@H](NC(=O)[C@H](CC(C)C)NC(=O)[C@H](Cc1cnc[nH]1)NC(=O)CNC(=O)[C@@H](NC(=O)[C@H](C)NC(=O)[C@H](Cc1c[nH]c2ccccc12)NC(=O)[C@H](CCC(N)=O)NC(=O)[C@H](CCC(=O)O)NC(=O)[C@H](CCCCN)NC(=O)CNC(=O)[C@H](CSCNC(C)=O)NC(=O)[C@H](CO)NC(=O)CN(C)C)C(C)C)C(N)=O,–,60 nM,–
CSCC[C@H](NC(=O)[C@H](CC(C)C)NC(=O)[C@H](Cc1cnc[nH]1)NC(=O)CNC(=O)[C@@H](NC(=O)[C@H](C)NC(=O)[C@H](Cc1c[nH]c2ccccc12)NC(=O)[C@H](CCC(N)=O)NC(=O)[C@H](CC(N)=O)NC(=O)CNC(=O)[C@H](Cc1ccc(O)cc1)NC(=O)[C@H](CCCNC(=N)N)NC(=O)[C@H](CCC(N)=O)NC(=O)[C@H](CCC(=O)O)NC(=O)[C@H]1CCCN1)C(C)C)C(N)=O,2.2 nM,3.36 nM,–
CSCC[C@H](NC(=O)[C@H](CC(C)C)NC(=O)[C@H](Cc1cnc[nH]1)NC(=O)CNC(=O)[C@@H](NC(=O)[C@H](C)NC(=O)[C@@H](N)Cc1c[nH]c2ccccc12)C(C)C)C(N)=O,> 800 nM,> 800 nM,–
CCCCC(NC(=O)[C@H](Cc1ccccc1)NC(=O)[C@H](Cc1cnc[nH]1)NC(=O)CCNC(=O)[C@@H](NC(=O)[C@H](C)NC(=O)[C@H](Cc1c[nH]c2ccccc12)NC(=O)[C@H](CCC(N)=O)NC(=O)C(N)Cc1ccc(O)cc1)C(C)C)C(N)=O (stereo in doubt),–,–,Activity [4]: Active
CSCC[C@H](NC(=O)[C@H](CC(C)C)NC(=O)[C@H](Cc1cnc[nH]1)NC(=O)CNC(=O)[C@@H](NC(=O)[C@H](C)NC(=O)[C@H](Cc1c[nH]c2ccccc12)NC(=O)[C@H](CCC(N)=O)NC(=O)[C@H]1CC[C@H](CNC(=O)[C@H]2CC[C@H](CNC(=O)CN3CCN(CC(=O)O)CCN(CC(=O)O)CCN(CC(=O)O)CC3)CC2)CC1)C(C)C)C(N)=O,–,0.3 nM,–
CSCC[C@H](NC(=O)[C@H](CC(C)C)NC(=O)[C@H](Cc1cnc[nH]1)NC(=O)CNC(=O)[C@@H](NC(=O)[C@H](C)NC(=O)[C@H](Cc1c[nH]c2ccccc12)NC(=O)[C@H](CCC(N)=O)NC(=O)Cn1cnc2ccc(N3CCN(C(=O)CN4CCN(CC(=O)O)CCN(CC(=O)O)CCN(CC(=O)O)CC4)CC3)cc2c1=O)C(C)C)C(N)=O,> 50 nM,–,–

# Second part, led by results:
IC50 [1],IC50 (Neuromedin-B receptor),SMILES,also measured
> 50 nM,–,CSCC[C@H](NC(=O)[C@H](CC(C)C)NC(=O)[C@H](Cc1cnc[nH]1)NC(=O)CNC(=O)[C@@H](NC(=O)[C@H](C)NC(=O)[C@H](Cc1c[nH]c2ccccc12)NC(=O)[C@H](CCC(N)=O)NC(=O)[C@@H]1CSC2CC[C@H](NC(=O)CN3CCN(CC(=O)O)CCN(CC(=O)O)CCN(CC(=O)O)CC3)C(=O)N21)C(C)C)C(N)=O (stereo partly specified),–
> 50 nM,–,CSCC[C@H](NC(=O)[C@H](CC(C)C)NC(=O)[C@H](Cc1cnc[nH]1)NC(=O)CNC(=O)[C@@H](NC(=O)[C@H](C)NC(=O)[C@H](Cc1c[nH]c2ccccc12)NC(=O)[C@H](CCC(N)=O)NC(=O)C[C@@H]1NC(=O)C2C[C@H](NC(=O)CN3CCN(CC(=O)O)CCN(CC(=O)O)CCN(CC(=O)O)CC3)CN2C1=O)C(C)C)C(N)=O (stereo partly specified),–
–,0.07 to 0.8 nM,CSCC[C@H](NC(=O)[C@H](Cc1ccccc1)NC(=O)[C@H](Cc1c[nH]cn1)NC(=O)CNC(=O)[C@@H](NC(=O)[C@H](C)NC(=O)[C@H](Cc1c[nH]c2ccccc12)NC(=O)[C@H](CC(C)C)NC(=O)c1ccc(NC(=O)CNC(=O)CN2CCN(CC(=O)O)CCN(CC(=O)O)CCN(CC(=O)O)CC2)cc1)C(C)O)C(N)=O (stereo partly specified),–
–,> 250 nM,CSCC[C@H](NC(=O)[C@H](CC(C)C)NC(=O)[C@H](Cc1cnc[nH]1)NC(=O)CNC(=O)[C@@H](NC(=O)[C@H](C)NC(=O)[C@H](Cc1c[nH]c2ccccc12)NC(=O)[C@H](CCC(N)=O)NC(=O)CN1CCN(CC(=O)O)CCN(CC(=O)O)CCN(CC(=O)O)CC1)C(C)C)C(N)=O,–
> 50 nM,–,CSCC[C@H](NC(=O)[C@H](CC(C)C)NC(=O)[C@H](Cc1cnc[nH]1)NC(=O)CNC(=O)[C@@H](NC(=O)[C@H](C)NC(=O)[C@H](Cc1c[nH]c2ccccc12)NC(=O)[C@H](CCC(N)=O)NC(=O)CN1CN(c2ccccc2)C2(CCN(C(=O)CN3CCN(CC(=O)O)CCN(CC(=O)O)CCN(CC(=O)O)CC3)CC2)C1=O)C(C)C)C(N)=O,–
> 50 nM,–,CSCC[C@H](NC(=O)[C@H](CC(C)C)NC(=O)[C@H](Cc1cnc[nH]1)NC(=O)CNC(=O)[C@@H](NC(=O)[C@H](C)NC(=O)[C@H](Cc1c[nH]c2ccccc12)NC(=O)[C@H](CCC(N)=O)NC(=O)[C@@H]1Cc2cccc3c2N1C(=O)[C@@H](NC(=O)CN1CCN(CC(=O)O)CCN(CC(=O)O)CCN(CC(=O)O)CC1)CC3)C(C)C)C(N)=O,–
> 50 nM,–,CSCC[C@H](NC(=O)[C@H](CC(C)C)NC(=O)[C@H](Cc1cnc[nH]1)NC(=O)CNC(=O)[C@@H](NC(=O)[C@H](C)NC(=O)[C@H](Cc1c[nH]c2ccccc12)NC(=O)[C@H](CCC(N)=O)NC(=O)[C@H](CCCNC(=N)N)NC(=O)[C@H](CCCCNC(=O)COCCOCCOCC(=O)N[C@H]1CC[C@]2(C)[C@H]3C[C@H](O)[C@]4(C)[C@@H]([C@H](C)CCC(=O)O)CC[C@H]4[C@@H]3CC[C@]2(C)C1)NC(=O)CNC(=O)CN1CCN(CC(=O)O)CCN(CC(=O)O)CCN(CC(=O)O)CC1)C(C)C)C(N)=O,–
> 50 nM,–,CSCC[C@H](NC(=O)[C@H](CC(C)C)NC(=O)[C@H](Cc1cnc[nH]1)NC(=O)CNC(=O)[C@@H](NC(=O)[C@H](C)NC(=O)[C@H](Cc1c[nH]c2ccccc12)NC(=O)[C@H](CCC(N)=O)NC(=O)CN1CCN(C(=O)CN2CCN(CC(=O)O)CCN(CC(=O)O)CCN(CC(=O)O)CC2)CC1)C(C)C)C(N)=O,–
